Values quoted from earlier work, collected in PMC12583704 (Signal Transduction and Targeted Therapy, 2025).

Tests used:
[1] = set-up: method as in HQP1351 SJ0003 Protocol; details: granules, single intragastric administration; ref HQP1351 SJ0003 Protocol; cited from earlier work
CYP2C9 = test system: CYP2C9; set-up: method as in HQP1351 SJ0003 Protocol; details: 0 - 50 μM; ref HQP1351 SJ0003 Protocol; cited from earlier work
CYP1A2 = test system: CYP1A2; set-up: method as in HQP1351 SJ0003 Protocol; details: 0 - 50 μM; ref HQP1351 SJ0003 Protocol; cited from earlier work
CYP3A4 and CYP2C9 = test system: CYP3A4 and CYP2C9; set-up: method as in HQP1351 SJ0003 Protocol; details: ref HQP1351 SJ0003 Protocol; cited from earlier work
[2] = set-up: method as in HQP1351 SJ0003 Protocol; details: ref HQP1351 SJ0003 Protocol; cited from earlier work
bone marrow cells = test system: bone marrow cells; set-up: method as in HQP1351 SJ0003 Protocol; details: ref HQP1351 SJ0003 Protocol; cited from earlier work

Cc1ccc(C(=O)Nc2ccc(CN3CCN(C)CC3)c(C(F)(F)F)c2)cc1C#Cc1cnc2[nH]ncc2c1 [Olverembatinib, 3-[(1H-pyrazolo[3,4-b]pyridin-5-yl)ethynyl]-4-methyl-N-{4-[(4-methylpiperazin-1-yl)methyl]-3-(trifluoromethyl)phenyl]benzamide]
safe dose on the cardiovascular and respiratory function [1]: ≥ 1.5 mg/kg | inhibitory effect on CYP2C9 (CYP2C9): certain inhibitory effect | inhibitory effect on CYP1A2 (CYP1A2): no significant inhibitory effect | major metabolic enzymes that catalyze the oxidative metabolism (CYP3A4 and CYP2C9): CYP3A4 and CYP2C9 | unchanged drug oxidized NADPH-dependently [2]: Less than 20% | genotoxicity on bone marrow cells (bone marrow cells): no
